{"source": "ChEMBL document CHEMBL5625227", "about": "“Discovery and optimization of 2,3-diaryl-1,3-thiazolidin-4-one-based derivatives as potent and selective cytotoxic agents with anti-inflammatory activity” (Eur J Med Chem, 2023)", "key": {"MCF7": {"test_system": "MCF7", "assay": "Cytotoxicity against human MCF7 cells assessed as inhibition in cell growth incubated for 72 hrs by MTT assay", "format": "functional, cell-based", "conditions": "MCF7, 72 h"}, "HT-29 [1]": {"test_system": "HT-29", "assay": "Cytotoxicity against human HT-29 cells assessed as inhibition in cell growth incubated for 72 hrs by MTT assay", "format": "functional, cell-based", "conditions": "HT-29, 72 h"}, "A2780": {"test_system": "A2780", "assay": "Cytotoxicity against human A2780 cells assessed as inhibition in cell growth incubated for 72 hrs by MTT assay", "format": "functional, cell-based", "conditions": "A2780, 72 h"}, "[2]": {"assay": "Cytotoxicity against human MRC5 cells assessed as inhibition in cell growth incubated for 72 hrs by MTT assay", "format": "toxicity, cell-based"}, "[3]": {"assay": "Selectivity index, ratio of IC50 for cytotoxicity against human MRC5 cells to IC50 for cytotoxicity against human MCF7 cells", "conditions": "MRC5 cells versus MCF7 cells"}, "[4]": {"assay": "Selectivity index, ratio of IC50 for cytotoxicity against human MRC5 cells to IC50 for cytotoxicity against human HT-29 cells", "conditions": "MRC5 cells versus HT-29 cells"}, "[5]": {"assay": "Selectivity index, ratio of IC50 for cytotoxicity against human MRC5 cells to IC50 for cytotoxicity against human A2780 cells", "conditions": "MRC5 cells versus A2780 cells"}, "HT-29 [6]": {"test_system": "HT-29", "assay": "Anticlonogenic activity against human HT-29 cells assessed as reduction in number of colonies at 0.025 uM incubated for 24 hrs by clonogenic survival assay", "format": "functional, cell-based"}, "Ehrlich [7]": {"test_system": "Ehrlich", "assay": "Antitumor activity against mouse Ehrlich solid carcinoma cells bearing adult male swiss albino mouse assessed as decrease in tumor volume at 50 mg/kg, po administered every other day and observed at 9 days", "format": "functional, organism-based", "conditions": "time 9.0 day"}, "Ehrlich [8]": {"test_system": "Ehrlich", "assay": "Antitumor activity against mouse Ehrlich solid carcinoma cells bearing adult male swiss albino mouse assessed as decrease in tumor volume at 50 mg/kg, po administered every other day and observed at 13 days", "format": "functional, organism-based", "conditions": "time 13.0 day"}, "Ehrlich [9]": {"test_system": "Ehrlich", "assay": "Antitumor activity against mouse Ehrlich solid carcinoma cells bearing adult male swiss albino mouse assessed as decrease in tumor volume at 50 mg/kg, po administered every other day and observed at 5 days", "format": "functional, organism-based", "conditions": "time 5.0 day"}, "Ehrlich [10]": {"test_system": "Ehrlich", "assay": "Antitumor activity against mouse Ehrlich solid carcinoma cells bearing adult male swiss albino mouse assessed as tumor growth inhibition at 50 mg/kg, po administered every other day and observed at 13 days relative to control", "format": "functional", "conditions": "312 h, time 13 day, read-out: TGI"}, "Ehrlich [11]": {"test_system": "Ehrlich", "assay": "Antitumor activity against mouse Ehrlich solid carcinoma cells bearing adult male swiss albino mouse assessed as decrease in tumor weight at 50 mg/kg, po administered every other day and observed at 14 days", "format": "functional, organism-based", "conditions": "time 14.0 day"}, "HT-29 [12]": {"test_system": "HT-29", "assay": "Anti-migration activity in human HT-29 cells assessed as suppression in cell migration at 0.025 uM incubated 48 hrs by wound-healing assay", "format": "functional, cell-based"}, "HT-29 [13]": {"test_system": "HT-29", "assay": "Induction of apoptosis in human HT-29 cells assessed as accumulation of cells at viable stage at 0.025 uM incubated for 24 hrs by Annexin V-FITC/propidium iodide staining based flow cytometry analysis (reference value: 91.7%)", "format": "functional"}, "HT-29 [14]": {"test_system": "HT-29", "assay": "Induction of apoptosis in human HT-29 cells assessed as accumulation of cells at early apoptotic stage at 0.025 uM incubated for 24 hrs by Annexin V-FITC/propidium iodide staining based flow cytometry analysis (reference value: 0.1%)", "format": "functional"}, "HT-29 [15]": {"test_system": "HT-29", "assay": "Induction of apoptosis in human HT-29 cells assessed as accumulation of cells at late apoptotic stage at 0.025 uM incubated for 24 hrs by Annexin V-FITC/propidium iodide staining based flow cytometry analysis (reference value: 0.2%)", "format": "functional"}, "HT-29 [16]": {"test_system": "HT-29", "assay": "Induction of apoptosis in human HT-29 cells assessed as accumulation of cells at necrotic stage at 0.025 uM incubated for 24 hrs by Annexin V-FITC/propidium iodide staining based flow cytometry analysis (reference value: 8.1%)", "format": "functional"}, "Sus scrofa": {"organism": "Sus scrofa", "assay": "Inhibition of porcine brain tubulin polymerization at 1 uM by fluorescence-based tubulin polymerization assay"}, "[17]": {"molecular_target": "T1, Prostaglandin G/H synthase 1 (Ovis aries, UniProt P05979)", "T1 sequence (P05979 whole entry)": "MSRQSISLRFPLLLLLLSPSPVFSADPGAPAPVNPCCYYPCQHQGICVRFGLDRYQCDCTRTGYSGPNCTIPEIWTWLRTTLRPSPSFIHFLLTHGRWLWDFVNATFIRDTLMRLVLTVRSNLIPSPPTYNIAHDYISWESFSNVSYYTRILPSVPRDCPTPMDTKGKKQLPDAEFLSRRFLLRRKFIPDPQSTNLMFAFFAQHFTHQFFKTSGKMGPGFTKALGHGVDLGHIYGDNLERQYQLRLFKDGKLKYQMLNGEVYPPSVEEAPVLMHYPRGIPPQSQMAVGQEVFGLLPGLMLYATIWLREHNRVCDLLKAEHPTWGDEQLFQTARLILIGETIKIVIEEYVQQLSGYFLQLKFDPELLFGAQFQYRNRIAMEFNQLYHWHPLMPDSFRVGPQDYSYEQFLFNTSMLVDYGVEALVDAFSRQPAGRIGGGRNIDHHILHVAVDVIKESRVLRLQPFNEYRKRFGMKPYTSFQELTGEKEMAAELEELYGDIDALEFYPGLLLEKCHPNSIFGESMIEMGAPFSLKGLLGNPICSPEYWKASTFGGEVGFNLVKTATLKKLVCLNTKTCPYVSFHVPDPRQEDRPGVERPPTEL", "assay": "Inhibition of ovine COX-1"}, "Rattus norvegicus [18]": {"test_system": "Rattus norvegicus", "assay": "Antiinflammatory activity against carrageenan-induced paw edema Sprague-Dawley rat model assessed as inhibition of paw edema by measuring edema thickness at 50 mg/kg, po measured after 1 hr (reference value: 0.71 +/- 0.03 mm)", "format": "functional"}, "Rattus norvegicus [19]": {"test_system": "Rattus norvegicus", "assay": "Antiinflammatory activity against carrageenan-induced paw edema Sprague-Dawley rat model assessed as inhibition of paw edema by measuring edema thickness at 50 mg/kg, po measured after 3 hrs (reference value: 1.41 +/- 0.13 mm)", "format": "functional"}, "Rattus norvegicus [20]": {"test_system": "Rattus norvegicus", "assay": "Antiinflammatory activity against carrageenan-induced paw edema Sprague-Dawley rat model assessed as inhibition of paw edema by measuring edema thickness at 50 mg/kg, po measured after 5 hrs (reference value: 1.39 +/- 0.11 mm)", "format": "functional"}, "Rattus norvegicus [21]": {"test_system": "Rattus norvegicus", "assay": "Antiinflammatory activity against carrageenan-induced paw edema Sprague-Dawley rat model assessed as inhibition of inflammation at 50 mg/kg, po after 1 hr relative to control", "format": "functional", "parameters": "scale not given: the % may be the effect or the level left"}, "Rattus norvegicus [22]": {"test_system": "Rattus norvegicus", "assay": "Antiinflammatory activity against carrageenan-induced paw edema Sprague-Dawley rat model assessed as inhibition of inflammation at 50 mg/kg, po after 3 hrs relative to control", "format": "functional", "parameters": "scale not given: the % may be the effect or the level left"}, "Rattus norvegicus [23]": {"test_system": "Rattus norvegicus", "assay": "Antiinflammatory activity against carrageenan-induced paw edema Sprague-Dawley rat model assessed as inhibition of inflammation at 50 mg/kg, po after 5 hrs relative to control", "format": "functional", "parameters": "scale not given: the % may be the effect or the level left"}, "[24]": {"assay": "Acute ulcerogenic activity in Sprague-Dawley male rat assessed as incidence of ulcer/10 animal at 50 mg/kg/day, po administered for 3 days", "format": "toxicity, organism-based", "conditions": "in vivo, 72 h, time 3 day"}, "[25]": {"assay": "Acute ulcerogenic activity in Sprague-Dawley male rat assessed as average number of ulcers at 50 mg/kg/day, po administered for 3 days", "format": "toxicity, organism-based", "conditions": "in vivo, 72 h, time 3 day"}, "[26]": {"assay": "Acute ulcerogenic activity in Sprague-Dawley male rat assessed as average severity of ulcers at 50 mg/kg/day, po administered for 3 days", "format": "toxicity, organism-based", "conditions": "in vivo, 72 h, time 3 day"}, "[27]": {"assay": "Acute ulcerogenic activity in Sprague-Dawley male rat assessed as ulcer index at 50 mg/kg/day, po administered for 3 days", "format": "toxicity, organism-based", "conditions": "in vivo, 72 h, time 3 day"}, "[28]": {"assay": "Acute ulcerogenic activity in Sprague-Dawley male rat assessed as change in normal gastric mucosa with mild congestion of the blood vessels in the submucosa at 50 mg/kg/day, po administered for 3 days by hematoxylin and eosin staining method", "format": "toxicity, organism-based, Stomach", "conditions": "in vivo, 72 h, time 3 day"}}, "note": "Activity calls are given as the source filed them. The calls are words filed in the database; no cut-off is given here.", "data": [{"compound": "Cc1ccc(C2SCC(=O)N2c2ccc(OCC(=O)Nc3ccc(Cl)cc3)cc2)cc1", "note": "(stereo unspecified)", "values": [{"measurement": "IC50", "setting": "MCF7", "result": 110, "unit": "nM"}, {"measurement": "IC50", "setting": "HT-29 [1]", "result": 20, "unit": "nM"}, {"measurement": "IC50", "setting": "A2780", "result": 180, "unit": "nM"}, {"measurement": "IC50 at 72 h", "setting": "[2]", "result": 470, "unit": "nM"}, {"measurement": "selectivity ratio at 72 h", "setting": "[3]", "result": 4.27}, {"measurement": "selectivity ratio at 72 h", "setting": "[4]", "result": 23.5}, {"measurement": "selectivity ratio at 72 h", "setting": "[5]", "result": 2.61}, {"measurement": "Activity", "setting": "HT-29 [6]", "result": "Active"}, {"measurement": "Activity", "setting": "Ehrlich [7]", "result": "Active"}, {"measurement": "Activity", "setting": "Ehrlich [8]", "result": "Active"}, {"measurement": "Activity", "setting": "Ehrlich [9]", "result": "Active"}, {"measurement": "inhibition in vivo at 50 mg/kg", "setting": "Ehrlich [10]", "result": 51.6, "unit": "%"}, {"measurement": "Activity", "setting": "Ehrlich [11]", "result": "Active"}, {"measurement": "Activity", "setting": "HT-29 [12]", "result": "Active"}, {"measurement": "Activity", "setting": "HT-29 [13]", "result": 41.1, "unit": "%"}, {"measurement": "Activity", "setting": "HT-29 [14]", "result": 19.2, "unit": "%"}, {"measurement": "Activity", "setting": "HT-29 [15]", "result": 15.6, "unit": "%"}, {"measurement": "Activity", "setting": "HT-29 [16]", "result": 24.1, "unit": "%"}, {"measurement": "inhibition", "setting": "Sus scrofa", "result": "Active"}, {"measurement": "IC50", "setting": "[17]", "result": 13.4, "unit": "µM"}, {"measurement": "Activity", "setting": "Rattus norvegicus [18]", "result": 0.52, "unit": "mm"}, {"measurement": "Activity", "setting": "Rattus norvegicus [19]", "result": 0.49, "unit": "mm"}, {"measurement": "Activity", "setting": "Rattus norvegicus [20]", "result": 0.73, "unit": "mm"}, {"measurement": "Activity", "setting": "Rattus norvegicus [21]", "result": 15.3, "unit": "%"}, {"measurement": "Activity", "setting": "Rattus norvegicus [22]", "result": 32.7, "unit": "%"}, {"measurement": "Activity", "setting": "Rattus norvegicus [23]", "result": 47.48, "unit": "%"}, {"measurement": "Activity", "setting": "[24]", "result": 10, "unit": "%"}, {"measurement": "Activity", "setting": "[25]", "result": 3.33}, {"measurement": "Activity", "setting": "[26]", "result": 2}, {"measurement": "UI", "setting": "[27]", "result": 15.33}, {"measurement": "Activity", "setting": "[28]", "result": "Non-Toxic"}]}]}
